Laboratory results from patent US20220175675A1, “ENCAPSULATING MOLECULES IN FAT GLOBULES” (The Regents of the University of California, priority 2019, published 2022).
Marks after values point to notes of the source that are not given here. Each block holds one compound with its values, some of them ahead of it.

Tests used:
[1] = Encapsulation of hydrophobic compounds into milk fat globules (loading capacity, encapsulation efficiency); assay type: physicochemical, bovine; details: for maximal loading capacity (LC): maximal value over 50-2500 μM; for encapsulation efficiency (EE %), maximal/overall value: over tested concentrations
Description: Raw milk was procured from a local market and stored at 4° C. Milk was used for up to 4 days post purchase. MFGs were separated from raw milk using centrifugal separation following a modified version of the method by Gallier et al. (2010) (12). First, raw milk was diluted with Milli-Q water at 9:1 water to milk, and the solution was centrifuged at 3,000×g for 5 min using a fixed angle centrifuge rotor. Cream was then skimmed off the sides of the centrifuged tubes after discarding the aqueous phase. In order to remove more of the milk serum components, cream was reconstituted in water to reach 4% w/v, and subjected to another step of centrifugation at 3,000×g for 5 min Cream was collected as detailed prior, then reconstituted to 20% w/v in Milli-Q water. All separation steps were completed at room temperature.
Encapsulation of test compounds in MFGs was accomplished by mixing ethanolic stock solution of a compound with 20% w/v cream suspended in water. The mixture was gently inverted several times to mix, then allowed in incubate in the dark.
To test the effect of incubation temperature on the partitioning and encapsulation yield and efficiency, RA was added at 250 μM concentration and was allowed to incubate with MFGs for 30 min at 4, 22, and 40° C.
To quantify the amount of compound encapsulated in MFGs, cream was separated from ethanol-containing aqueous phase via centrifugal separation at 3,000 x g for 5 min. Cream was skimmed and added to methanol at 50 mg/mL and vortexed vigorously for 1 min, then centrifuged at 16,000×g for 10 min. Top layer of methanol was collected and absorbance was measured at appropriate wavelength for each compound. An absorbance blank was prepared following the same encapsulation and separation steps in the absence of compound. λmax in methanol (nm) for each compound is reported in Table 1.
Cream (20% w/v in Milli-Q water) that was separated following the steps in Example 2 was further separated via centrifugation at 3,000×g for 5 min. Fat content in cream was measured using a modified Folch method (13). An additional washing step was incorporated where the chloroform/water interface was washed with 1:1 water/methanol solution.

[2] = Measured or estimated, from references; cited from earlier work
[3] = Encapsulation of hydrophobic compounds into milk fat globules (loading capacity, encapsulation efficiency); assay type: physicochemical, bovine; details: 250 μM, 1% v/v ethanol, room temperature
[4] = Water/octanol partitioning coefficient, Log P
[5] = 150 μM added compound, 10% v/v ethanol, 30 min, room temperature
[6] = 200 μM added compound, 10% v/v ethanol, 30 min, room temperature
[7] = 250 μM added compound, 10% v/v ethanol, 30 min, room temperature
[8] = 500 μM added compound, 10% v/v ethanol, 30 min, room temperature
[9] = 1000 μM added compound, 10% v/v ethanol, 30 min, room temperature
[10] = 1500 μM added compound, 10% v/v ethanol, 30 min, room temperature
[11] = 2000 μM added compound, 10% v/v ethanol, 30 min, room temperature
[12] = 2500 μM added compound, 10% v/v ethanol, 30 min, room temperature
[13] = 10% v/v ethanol, 30 min, room temperature
[14] = 1% v/v ethanol, 250 μM, 30 min, room temperature
[15] = 2% v/v ethanol, 250 μM, 30 min, room temperature
[16] = 4% v/v ethanol, 250 μM, 30 min, room temperature
[17] = 4 °C, 30 min, 250 μM, 1% v/v ethanol
[18] = 6% v/v ethanol, 250 μM, 30 min, room temperature
[19] = 8% v/v ethanol, 250 μM, 30 min, room temperature
[20] = 10% v/v ethanol, 250 μM, 30 min, room temperature
[21] = 22 °C, 30 min, 250 μM, 1% v/v ethanol
[22] = 40 °C, 30 min, 250 μM, 1% v/v ethanol
[23] = 40 °C, 30 min, 250 μM, 1% v/v ethanol, listed as RA
[24] = 30 min incubation, 250 μM, 1% v/v ethanol, room temperature

SMILES: C=CCc1ccc(O)c(OC)c1 [Eugenol]
% Encapsulation efficiency [1, 5]: 98.05 ± 4.10%
% Encapsulation efficiency [1, 6]: 95.43 ± 7.46%
% Encapsulation efficiency [1, 7]: 86.64 ± 7.23%
% Encapsulation efficiency [1, 8]: 85.14 ± 6.33%
% Encapsulation efficiency [1, 9]: 80.94 ± 2.42 %
% Encapsulation efficiency [1, 10]: 82.09 ± 134 %
% Encapsulation efficiency [1, 11]: 80.86 ± 2.58 %
% Encapsulation efficiency [1, 12]: 80.71 ± 3.39 %
maximal loading capacity (LC) [1, 13]: 39.65 μg per gram of milk fat
encapsulation efficiency (EE %), maximal/overall value ([1]; 10% v/v ethanol, 30 min): approximately 98%
logP (physchem): ~2.6
Water/octanol partitioning coefficient, Log P [2]: 2.61-2.66 ^(18)

% Encapsulation efficiency ([3]; 50 min incubation): 89.38 ± 4.66 %
Loading capacity ([3]; 60 min incubation, listed as RA): 9.28 μg retinyl acetate/g of milk f
logP [4]: ~8
% Encapsulation efficiency ([1]; 50 μM added compound, 10% v/v ethanol, 30 min, room temperature): 107.46 ± 6.29%
% Encapsulation efficiency ([1]; 100 μM added compound, 10% v/v ethanol, 30 min, room temperature): 100.56 ± 3.83%
% Encapsulation efficiency [1, 5]: 111.73 ± 6.32%
% Encapsulation efficiency [1, 6]: 110.33 ± 3.15%
% Encapsulation efficiency [1, 7]: 105.92 ± 4.41%
% Encapsulation efficiency [1, 8]: 76.40 ± 9.65 %
% Encapsulation efficiency [1, 9]: 86.09 ± 12.48 %
% Encapsulation efficiency [1, 10]: 82.14 ± 15.94 %
% Encapsulation efficiency [1, 11]: 76.89 ± 9.88 %
% Encapsulation efficiency [1, 12]: 75.45 ± 5.19 %
% Encapsulation efficiency [1, 14]: 77.86 ± 5.54^ %
Loading capacity ([1]; 1% v/v ethanol, 250 μM, 30 min, room temperature, listed as RA): 7.6 μg retinyl acetate/g of milk f
EE % range with increased ethanol concentration ([1]; 1 to 10% v/v ethanol, 250 μM, 30 min): 78-107%
% Encapsulation efficiency [1, 15]: 83.40 ± 11.73%
% Encapsulation efficiency [1, 16]: 101.24 ± 4.76 %
% Encapsulation efficiency [1, 17]: 53.52 ± 3.97 ^a %
% Encapsulation efficiency [1, 18]: 106.90 ± 10.93 %
% Encapsulation efficiency [1, 19]: 107.65 ± 6.42 %
% Encapsulation efficiency [1, 20]: 107.53 ± 5.15 %
Loading capacity ([1]; 10% v/v ethanol, 250 μM, 30 min, room temperature, listed as RA): 10.57 μg retinyl acetate/g of milk f
% Encapsulation efficiency [1, 21]: 72.07 ± 3.85 ^b %
% Encapsulation efficiency [1, 22]: 124.42 ± 6.52 ^c %
% Encapsulation efficiency [1, 23]: 124.42%
Loading capacity [1, 23]: 12.23 μg retinyl acetate/g of milk f
% Encapsulation efficiency ([1]; 10 min incubation, 250 μM, 1% v/v ethanol, room temperature): 52.02 ± 4.66^ %
% Encapsulation efficiency ([1]; 20 min incubation, 250 μM, 1% v/v ethanol, room temperature): 65.66 ± 6.40 %
% Encapsulation efficiency [1, 24]: 76.11 ± 0.89 %
% Encapsulation efficiency ([1]; 40 min incubation, 250 μM, 1% v/v ethanol, room temperature): 78.98 ± 5.13 %
% Encapsulation efficiency ([1]; 60 min incubation, 250 μM, 1% v/v ethanol, room temperature): 94.38 ± 2.25 *†‡¥ %
maximal loading capacity (LC) [1, 13]: 74.15 μg per gram of milk fat
encapsulation efficiency (EE %), maximal/overall value ([1]; 10% v/v ethanol, 30 min): ≥ 100%
SMILES: CC(=O)OC/C=C(C)/C=C/C=C(C)/C=C/C1=C(C)CCCC1(C)C [Retinyl acetate]
Loading capacity ([3]; 10 min incubation): 5.11 ± 0.46^ μg retinyl acetate/g of milk f
Loading capacity ([3]; 20 min incubation): 6.45 ± 0.63 μg retinyl acetate/g of milk f
Loading capacity ([3]; 40 min incubation): 7.76 ± 0.50 μg retinyl acetate/g of milk f
Loading capacity ([3]; 60 min incubation): 9.28 ± 0.22 *†‡¥ μg retinyl acetate/g of milk f
Loading capacity [1, 14]: 7.65 ± 0.54^ μg retinyl acetate/g of milk f
Loading capacity [1, 15]: 8.20 ± 1.15^ μg retinyl acetate/g of milk f
Loading capacity [1, 16]: 9.95 ± 0.47 μg retinyl acetate/g of milk f
Loading capacity [1, 17]: 5.26 ± 0.39 ^a μg retinyl acetate/g of milk f
Loading capacity [1, 18]: 10.51 ± 1.07 μg retinyl acetate/g of milk f
Loading capacity [1, 19]: 10.58 ± 0.63 μg retinyl acetate/g of milk f
Loading capacity [1, 20]: 10.57 ± 0.51 μg retinyl acetate/g of milk f
Loading capacity [1, 21]: 7.08 ± 0.38 ^b μg retinyl acetate/g of milk f
Loading capacity [1, 22]: 12.23 ± 0.64 ^c μg retinyl acetate/g of milk f
Loading capacity [1, 24]: 7.48 ± 0.09 μg retinyl acetate/g of milk f
Loading capacity ([1]; 50 min incubation, 250 μM, 1% v/v ethanol, room temperature): 8.78 ± 0.46 μg retinyl acetate/g of milk f
Water/octanol partitioning coefficient, Log P [2]: 6.3-9.81 ^(21, 23)
